From ChEMBL document CHEMBL3046898, “Synthesis and characterization of flurbiprofen hydrazide derivatives as potential anti-HCV, anticancer and antimicrobial agents” (2013)
The source made the active and inactive calls. The rule behind the calls is not given here.

Assays:
[1] = test system: Pseudomonas aeruginosa; test: Antibacterial activity against Pseudomonas aeruginosa at 6.25 to 200 ug/ml after 24 hrs by microwell dilution method; assay type: functional, organism-based
[2] = test system: Escherichia coli; test: Antibacterial activity against Escherichia coli at 6.25 to 200 ug/ml after 24 hrs by microwell dilution method; assay type: functional, organism-based
[3] = test system: Staphylococcus cohnii; test: Antibacterial activity against Staphylococcus cohnii at 6.25 to 200 ug/ml after 24 hrs by microwell dilution assay; assay type: functional, organism-based
[4] = test system: Aspergillus; test: Antifungal activity against Aspergillus at 10 mg/ml after 72 hrs by disc diffusion method; assay type: functional, organism-based
[5] = test system: Pichia membranifaciens; test: Antifungal activity against Pichia membranifaciens at 10 mg/ml after 48 hrs by disc diffusion method; assay type: functional, organism-based
[6] = test system: Schwanniomyces occidentalis; test: Antifungal activity against Schwanniomyces occidentalis at 10 mg/ml after 48 hrs by disc diffusion method; assay type: functional, organism-based
[7] = test system: Candida parapsilosis; test: Antifungal activity against Candida parapsilosis at 10 mg/ml after 48 hrs by disc diffusion method; assay type: functional, organism-based
[8] = test system: Candida tropicalis; test: Antifungal activity against Candida tropicalis at 10 mg/ml after 48 hrs by disc diffusion method; assay type: functional, organism-based
[9] = test system: MDA-MB-231; test: Cytotoxicity against human MDA-MB-231 assessed as cell growth at 10 uM after 48 hrs by SRB assay; assay type: functional; settings: MDA-MB-231, 48 h, read-out: Activity
[10] = test system: MCF7; test: Cytotoxicity against human MCF7 assessed as cell growth at 10 uM after 48 hrs by SRB assay; assay type: functional; settings: MCF7, 48 h, read-out: Activity
[11] = test system: DU-145; test: Cytotoxicity against human DU145 assessed as cell growth at 10 uM after 48 hrs by SRB assay; assay type: functional; settings: DU-145, 48 h, read-out: Activity
[12] = test system: UO-31; test: Cytotoxicity against human UO31 assessed as cell growth at 10 uM after 48 hrs by SRB assay; assay type: functional; settings: UO-31, 48 h, read-out: Activity
[13] = test system: TK-10; test: Cytotoxicity against human TK10 assessed as cell growth at 10 uM after 48 hrs by SRB assay; assay type: functional; settings: TK-10, 48 h, read-out: Activity
[14] = test system: RXF 393; test: Cytotoxicity against human RXF393 assessed as cell growth at 10 uM after 48 hrs by SRB assay; assay type: functional; settings: RXF 393, 48 h, read-out: Activity
[15] = test system: ACHN; test: Cytotoxicity against human ACHN assessed as cell growth at 10 uM after 48 hrs by SRB assay; assay type: functional; settings: read-out: Activity
[16] = test system: OVCAR-5; test: Cytotoxicity against human OVCAR5 assessed as cell growth at 10 uM after 48 hrs by SRB assay; assay type: functional; settings: OVCAR-5, 48 h, read-out: Activity
[17] = test system: OVCAR-4; test: Cytotoxicity against human OVCAR4 assessed as cell growth at 10 uM after 48 hrs by SRB assay; assay type: functional; settings: OVCAR-4, 48 h, read-out: Activity
[18] = test system: OVCAR-3; test: Cytotoxicity against human OVCAR3 assessed as cell growth at 10 uM after 48 hrs by SRB assay; assay type: functional; settings: OVCAR-3, 48 h, read-out: Activity
[19] = test system: IGROV-1; test: Cytotoxicity against human IGROV1 assessed as cell growth at 10 uM after 48 hrs by SRB assay; assay type: functional; settings: IGROV-1, 48 h, read-out: Activity
[20] = test system: UACC-62; test: Cytotoxicity against human UACC62 assessed as cell growth at 10 uM after 48 hrs by SRB assay; assay type: functional; settings: UACC-62, 48 h, read-out: Activity
[21] = test system: UACC-257; test: Cytotoxicity against human UACC257 assessed as cell growth at 10 uM after 48 hrs by SRB assay; assay type: functional; settings: UACC-257, 48 h, read-out: Activity
[22] = test system: SK-MEL-5; test: Cytotoxicity against human SK-MEL-5 assessed as cell growth at 10 uM after 48 hrs by SRB assay; assay type: functional; settings: SK-MEL-5, 48 h, read-out: Activity
[23] = test system: MDA-MB-435; test: Cytotoxicity against human MDA-MB-435 assessed as cell growth at 10 uM after 48 hrs by SRB assay; assay type: functional; settings: MDA-MB-435, 48 h, read-out: Activity
[24] = test system: Malme-3M; test: Cytotoxicity against human MALME-3M assessed as cell growth at 10 uM after 48 hrs by SRB assay; assay type: functional; settings: read-out: Activity
[25] = test system: M14; test: Cytotoxicity against human M14 assessed as cell growth at 10 uM after 48 hrs by SRB assay; assay type: functional; settings: M14, 48 h, read-out: Activity
[26] = test system: U-251; test: Cytotoxicity against human U251 assessed as cell growth at 10 uM after 48 hrs by SRB assay; assay type: functional; settings: U-251, 48 h, read-out: Activity
[27] = test system: SNB-19; test: Cytotoxicity against human SNB19 assessed as cell growth at 10 uM after 48 hrs by SRB assay; assay type: functional; settings: SNB-19, 48 h, read-out: Activity
[28] = test system: SF-539; test: Cytotoxicity against human SF539 assessed as cell growth at 10 uM after 48 hrs by SRB assay; assay type: functional; settings: SF-539, 48 h, read-out: Activity
[29] = test system: SF-268; test: Cytotoxicity against human SF268 assessed as cell growth at 10 uM after 48 hrs by SRB assay; assay type: functional; settings: SF-268, 48 h, read-out: Activity
[30] = test system: SW-620; test: Cytotoxicity against human SW620 assessed as cell growth at 10 uM after 48 hrs by SRB assay; assay type: functional; settings: SW-620, 48 h, read-out: Activity
[31] = test system: HT-29; test: Cytotoxicity against human HT-29 assessed as cell growth at 10 uM after 48 hrs by SRB assay; assay type: functional; settings: HT-29, 48 h, read-out: Activity
[32] = test system: NCI-H460; test: Cytotoxicity against human NCI-H460 assessed as cell growth at 10 uM after 48 hrs by SRB assay; assay type: functional; settings: NCI-H460, 48 h, read-out: Activity
[33] = test system: NCI-H226; test: Cytotoxicity against human NCI-H226 assessed as cell growth at 10 uM after 48 hrs by SRB assay; assay type: functional; settings: NCI-H226, 48 h, read-out: Activity
[34] = test system: NCI-H23; test: Cytotoxicity against human NCI-H23 assessed as cell growth at 10 uM after 48 hrs by SRB assay; assay type: functional; settings: NCI-H23, 48 h, read-out: Activity
[35] = test system: HOP-92; test: Cytotoxicity against human HOP92 assessed as cell growth at 10 uM after 48 hrs by SRB assay; assay type: functional; settings: HOP-92, 48 h, read-out: Activity
[36] = test system: Klebsiella aerogenes; test: Antibacterial activity against Enterobacter aerogenes at 6.25 to 200 ug/ml after 24 hrs by microwell dilution method; assay type: functional, organism-based
[37] = test system: Salmonella paratyphi; test: Antibacterial activity against Salmonella paratyphi at 6.25 to 200 ug/ml after 24 hrs by microwell dilution method; assay type: functional, organism-based; settings: Salmonella enterica subsp. enterica serovar Paratyphi A
[38] = test system: SR; test: Cytotoxicity against human SR assessed as cell growth at 10 uM after 48 hrs by SRB assay; assay type: functional; settings: read-out: Activity
[39] = test system: Acinetobacter radioresistens; test: Antibacterial activity against Acinetobacter radioresistens at 10 mg/ml after 24 hrs by disc diffusion method; assay type: functional, organism-based
[40] = test system: Micrococcus lylae; test: Antibacterial activity against Micrococcus lylae at 10 mg/ml after 24 hrs by disc diffusion method; assay type: functional, organism-based
[41] = test system: Escherichia coli; test: Antibacterial activity against Escherichia coli at 10 mg/ml after 24 hrs by disc diffusion method; assay type: functional, organism-based

**Q.** With `CC(C(=O)NN1C(=O)CSC1c1ccc(C(F)(F)F)cc1)c1ccc(-c2ccccc2)c(F)c1` (stereo unspecified) as the molecule, how does the Activity [1] read?
**A.** inactive

**Q.** And the Activity [2]?
**A.** inactive

**Q.** What about the Activity [3] of the same molecule?
**A.** inactive

**Q.** And the Activity [4]?
**A.** inactive

**Q.** What about the Activity [5] of the same molecule?
**A.** inactive

**Q.** And the Activity [6]?
**A.** inactive

**Q.** What about the Activity [7] of the same molecule?
**A.** inactive

**Q.** And the Activity [8]?
**A.** inactive

**Q.** And the growth at 10 µM [9]?
**A.** 70.1%

**Q.** What about the growth at 10 µM [10] of the same molecule?
**A.** 43%

**Q.** What about the growth at 10 µM [11] of the same molecule?
**A.** 81.5%

**Q.** What about the growth at 10 µM [12] of the same molecule?
**A.** 58.8%

**Q.** What about the growth at 10 µM [13] of the same molecule?
**A.** 99.5%

**Q.** What about the growth at 10 µM [14] of the same molecule?
**A.** 72.5%

**Q.** What about the growth at 10 µM [15] of the same molecule?
**A.** 59.6%

**Q.** What about the growth at 10 µM [16] of the same molecule?
**A.** 105%

**Q.** What about the growth at 10 µM [17] of the same molecule?
**A.** 58.6%

**Q.** And the growth at 10 µM [18]?
**A.** 64.3%

**Q.** What about the growth at 10 µM [19] of the same molecule?
**A.** 75.5%

**Q.** What about the growth at 10 µM [20] of the same molecule?
**A.** 50.9%

**Q.** And the growth at 10 µM [21]?
**A.** 94.4%

**Q.** What about the growth at 10 µM [22] of the same molecule?
**A.** 81.8%

**Q.** What about the growth at 10 µM [23] of the same molecule?
**A.** 66.7%

**Q.** What about the growth at 10 µM [24] of the same molecule?
**A.** 63%

**Q.** What about the growth at 10 µM [25] of the same molecule?
**A.** 54.5%

**Q.** And the growth at 10 µM [26]?
**A.** 65.2%

**Q.** What about the growth at 10 µM [27] of the same molecule?
**A.** 54.7%

**Q.** And the growth at 10 µM [28]?
**A.** 63%

**Q.** What about the growth at 10 µM [29] of the same molecule?
**A.** 62.1%

**Q.** What about the growth at 10 µM [30] of the same molecule?
**A.** 83.9%

**Q.** What about the growth at 10 µM [31] of the same molecule?
**A.** 55.1%

**Q.** What about the growth at 10 µM [32] of the same molecule?
**A.** 40.5%

**Q.** What about the growth at 10 µM [33] of the same molecule?
**A.** 86%

**Q.** And the growth at 10 µM [34]?
**A.** 90.4%

**Q.** What about the growth at 10 µM [35] of the same molecule?
**A.** 59.9%

**Q.** And the Activity [36]?
**A.** inactive

**Q.** What about the Activity [37] of the same molecule?
**A.** inactive

**Q.** What about the growth at 10 µM [38] of the same molecule?
**A.** 20.8%

**Q.** And the Activity [39]?
**A.** inactive

**Q.** And the Activity [40]?
**A.** inactive

**Q.** And the Activity [41]?
**A.** inactive
